Tests used:
[1] = tested on: Receptor-type tyrosine-protein kinase FLT3 (Homo sapiens), P36888 [D835V]; conditions: Compound concentration 1000.0 nM
[2] = target: Mitogen-activated protein kinase kinase kinase 10 (Homo sapiens) (UniProt Q02779); conditions: Compound concentration 1000.0 nM
[3] = target: Mitogen-activated protein kinase kinase kinase 2 (Homo sapiens) (UniProt Q9Y2U5); conditions: Compound concentration 1000.0 nM
[4] = target: Testis-specific serine/threonine-protein kinase 3 (Homo sapiens) (UniProt Q96PN8); conditions: Compound concentration 1000.0 nM
[5] = target: Myosin light chain kinase (Homo sapiens) (UniProt Q32MK0); conditions: Compound concentration 1000.0 nM
Sequence of Myosin light chain kinase (Homo sapiens) (Q32MK0 whole entry): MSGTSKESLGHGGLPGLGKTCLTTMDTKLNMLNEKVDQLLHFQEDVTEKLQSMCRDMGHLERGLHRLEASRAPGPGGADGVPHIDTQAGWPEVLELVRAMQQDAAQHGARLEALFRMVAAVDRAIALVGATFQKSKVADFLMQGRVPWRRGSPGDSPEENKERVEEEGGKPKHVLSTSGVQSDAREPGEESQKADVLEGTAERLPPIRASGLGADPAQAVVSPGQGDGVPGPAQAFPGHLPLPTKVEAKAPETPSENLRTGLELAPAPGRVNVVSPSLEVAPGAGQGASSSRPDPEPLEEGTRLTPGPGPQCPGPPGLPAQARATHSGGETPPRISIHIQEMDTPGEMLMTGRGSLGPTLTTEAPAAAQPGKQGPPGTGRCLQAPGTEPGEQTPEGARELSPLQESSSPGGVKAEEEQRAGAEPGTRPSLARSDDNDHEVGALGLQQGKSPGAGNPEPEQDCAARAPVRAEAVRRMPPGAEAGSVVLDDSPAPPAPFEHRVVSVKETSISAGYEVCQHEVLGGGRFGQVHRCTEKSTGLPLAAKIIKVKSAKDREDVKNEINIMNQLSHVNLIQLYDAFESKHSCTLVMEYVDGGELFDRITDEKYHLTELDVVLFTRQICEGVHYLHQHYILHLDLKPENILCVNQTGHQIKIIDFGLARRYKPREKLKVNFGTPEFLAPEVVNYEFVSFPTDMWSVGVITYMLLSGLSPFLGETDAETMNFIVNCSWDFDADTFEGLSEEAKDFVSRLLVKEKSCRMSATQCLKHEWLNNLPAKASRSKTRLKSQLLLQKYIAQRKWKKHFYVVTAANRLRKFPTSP

[6] = target: Cyclin-dependent kinase 19 (Homo sapiens) (UniProt Q9BWU1); conditions: Compound concentration 1000.0 nM
[7] = target: Serine/threonine-protein kinase Nek1 (Homo sapiens) (UniProt Q96PY6); conditions: Compound concentration 1000.0 nM
[8] = target: Serine/threonine-protein kinase TAO3 (Homo sapiens) (UniProt Q9H2K8); conditions: Compound concentration 1000.0 nM
[9] = target: Macrophage colony-stimulating factor 1 receptor (Homo sapiens) (UniProt P07333); conditions: Compound concentration 1000.0 nM
Sequence of Macrophage colony-stimulating factor 1 receptor (Homo sapiens) (P07333 whole entry, canonical isoform): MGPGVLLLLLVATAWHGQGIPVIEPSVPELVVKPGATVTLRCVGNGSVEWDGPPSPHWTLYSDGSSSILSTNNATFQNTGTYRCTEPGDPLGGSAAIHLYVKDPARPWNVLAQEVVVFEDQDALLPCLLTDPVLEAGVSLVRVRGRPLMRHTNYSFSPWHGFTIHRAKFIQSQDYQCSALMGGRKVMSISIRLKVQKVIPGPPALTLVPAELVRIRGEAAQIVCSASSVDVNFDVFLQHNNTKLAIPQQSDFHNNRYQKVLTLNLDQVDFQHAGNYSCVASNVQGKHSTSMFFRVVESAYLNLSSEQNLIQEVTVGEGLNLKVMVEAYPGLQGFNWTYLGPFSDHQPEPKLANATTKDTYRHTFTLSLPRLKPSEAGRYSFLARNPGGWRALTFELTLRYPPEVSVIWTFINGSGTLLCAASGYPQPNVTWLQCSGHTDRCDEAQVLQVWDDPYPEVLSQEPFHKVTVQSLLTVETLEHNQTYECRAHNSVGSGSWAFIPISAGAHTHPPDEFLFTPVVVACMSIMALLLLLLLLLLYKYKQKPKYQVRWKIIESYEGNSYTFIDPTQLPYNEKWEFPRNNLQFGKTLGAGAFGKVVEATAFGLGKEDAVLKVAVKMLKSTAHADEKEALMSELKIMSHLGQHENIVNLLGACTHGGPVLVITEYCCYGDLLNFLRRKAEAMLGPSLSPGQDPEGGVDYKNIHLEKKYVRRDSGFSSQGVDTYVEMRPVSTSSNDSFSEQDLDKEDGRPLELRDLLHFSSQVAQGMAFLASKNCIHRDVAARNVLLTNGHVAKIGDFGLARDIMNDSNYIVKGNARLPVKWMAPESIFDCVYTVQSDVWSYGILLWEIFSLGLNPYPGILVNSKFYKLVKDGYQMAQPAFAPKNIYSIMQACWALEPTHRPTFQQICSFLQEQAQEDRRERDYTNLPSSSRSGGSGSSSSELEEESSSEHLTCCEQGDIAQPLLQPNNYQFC

[10] = target: Phosphatidylinositol 4,5-bisphosphate 3-kinase catalytic subunit delta isoform (Homo sapiens) (UniProt O00329); conditions: Compound concentration 1000.0 nM
[11] = tested on: Mast/stem cell growth factor receptor Kit (Homo sapiens), P10721 [L576P]; conditions: Compound concentration 1000.0 nM
Sequence of Mast/stem cell growth factor receptor Kit (Homo sapiens), P10721 [L576P] (P10721 whole entry L576P): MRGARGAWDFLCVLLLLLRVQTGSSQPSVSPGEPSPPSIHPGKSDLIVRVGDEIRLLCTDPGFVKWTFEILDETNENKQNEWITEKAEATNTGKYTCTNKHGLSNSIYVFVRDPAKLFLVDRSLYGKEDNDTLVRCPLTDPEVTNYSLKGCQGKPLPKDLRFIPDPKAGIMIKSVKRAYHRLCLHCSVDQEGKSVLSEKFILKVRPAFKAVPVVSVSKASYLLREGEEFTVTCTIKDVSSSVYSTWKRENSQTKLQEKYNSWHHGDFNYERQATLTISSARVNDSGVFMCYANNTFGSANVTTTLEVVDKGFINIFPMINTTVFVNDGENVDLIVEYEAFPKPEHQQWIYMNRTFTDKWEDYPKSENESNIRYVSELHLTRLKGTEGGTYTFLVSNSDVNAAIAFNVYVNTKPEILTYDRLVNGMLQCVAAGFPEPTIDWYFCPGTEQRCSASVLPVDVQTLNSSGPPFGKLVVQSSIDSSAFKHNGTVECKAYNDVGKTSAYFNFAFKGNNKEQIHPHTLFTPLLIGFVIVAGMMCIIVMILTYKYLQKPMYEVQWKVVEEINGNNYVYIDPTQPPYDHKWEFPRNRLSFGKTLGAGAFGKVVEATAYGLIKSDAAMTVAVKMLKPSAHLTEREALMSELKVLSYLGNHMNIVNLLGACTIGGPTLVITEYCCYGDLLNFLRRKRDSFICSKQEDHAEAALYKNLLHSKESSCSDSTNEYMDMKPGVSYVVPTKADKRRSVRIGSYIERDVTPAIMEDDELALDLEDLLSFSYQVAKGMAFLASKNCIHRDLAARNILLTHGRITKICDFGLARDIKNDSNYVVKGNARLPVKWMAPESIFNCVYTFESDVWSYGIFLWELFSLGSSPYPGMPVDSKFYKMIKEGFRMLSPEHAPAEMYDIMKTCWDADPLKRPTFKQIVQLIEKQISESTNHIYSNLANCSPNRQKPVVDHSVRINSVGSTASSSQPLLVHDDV

[12] = target: Uncharacterized serine/threonine-protein kinase SBK3 (Homo sapiens) (UniProt P0C264); conditions: Compound concentration 1000.0 nM
[13] = target: Wee1-like protein kinase (Homo sapiens) (UniProt P30291); conditions: Compound concentration 1000.0 nM
[14] = target: Serine/threonine-protein kinase Nek7 (Homo sapiens) (UniProt Q8TDX7); conditions: Compound concentration 1000.0 nM
[15] = tested on: Phosphatidylinositol 4,5-bisphosphate 3-kinase catalytic subunit alpha isoform (Homo sapiens), P42336 [M1043I]; conditions: Compound concentration 1000.0 nM
[16] = target: Tyrosine-protein kinase ABL2 (Homo sapiens) (UniProt P42684); conditions: Compound concentration 1000.0 nM
[17] = target: Tyrosine-protein kinase receptor UFO (Homo sapiens) (UniProt P30530); conditions: Compound concentration 1000.0 nM
[18] = target: D(1B) dopamine receptor (Homo sapiens) (UniProt P21918); conditions: Compound concentration 10.0 uM
[19] = tested on: eIF-2-alpha kinase GCN2 (Homo sapiens), Q9P2K8 [S808G]; conditions: Compound concentration 1000.0 nM
[20] = tested on: Tyrosine-protein kinase ABL1 (Homo sapiens), P00519 [E255K]; conditions: Compound concentration 1000.0 nM
[21] = target: Serine/threonine-protein kinase 32B (Homo sapiens) (UniProt Q9NY57); conditions: Compound concentration 1000.0 nM
[22] = target: ALK tyrosine kinase receptor (Homo sapiens) (UniProt Q9UM73); conditions: Compound concentration 1000.0 nM
[23] = target: Cyclin-dependent kinase 7 (Homo sapiens) (UniProt P50613); conditions: Compound concentration 1000.0 nM
Sequence of Cyclin-dependent kinase 7 (Homo sapiens) (P50613 whole entry): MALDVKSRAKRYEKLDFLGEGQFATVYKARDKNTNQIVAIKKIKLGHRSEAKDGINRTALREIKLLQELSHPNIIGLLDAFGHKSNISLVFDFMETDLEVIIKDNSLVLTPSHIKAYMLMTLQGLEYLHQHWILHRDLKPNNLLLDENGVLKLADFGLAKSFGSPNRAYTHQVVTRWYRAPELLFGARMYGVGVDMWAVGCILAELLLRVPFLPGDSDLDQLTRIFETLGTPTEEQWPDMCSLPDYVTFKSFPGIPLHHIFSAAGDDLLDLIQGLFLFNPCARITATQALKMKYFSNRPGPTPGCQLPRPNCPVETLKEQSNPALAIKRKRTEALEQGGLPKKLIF

[24] = target: Serine/threonine-protein kinase RIO2 (Homo sapiens) (UniProt Q9BVS4); conditions: Compound concentration 1000.0 nM
[25] = target: Serine/threonine-protein kinase DCLK1 (Homo sapiens) (UniProt O15075); conditions: Compound concentration 1000.0 nM
[26] = target: Tyrosine-protein kinase ITK/TSK (Homo sapiens) (UniProt Q08881); conditions: Compound concentration 1000.0 nM
[27] = tested on: Phosphatidylinositol 4,5-bisphosphate 3-kinase catalytic subunit alpha isoform (Homo sapiens), P42336 [Q546K]; conditions: Compound concentration 1000.0 nM
[28] = target: Serine/threonine-protein kinase Nek5 (Homo sapiens) (UniProt Q6P3R8); conditions: Compound concentration 1000.0 nM
[29] = target: Activin receptor type-1-like (Homo sapiens) (UniProt P37023); conditions: Compound concentration 1000.0 nM
Sequence of Activin receptor type-1-like (Homo sapiens) (P37023 whole entry): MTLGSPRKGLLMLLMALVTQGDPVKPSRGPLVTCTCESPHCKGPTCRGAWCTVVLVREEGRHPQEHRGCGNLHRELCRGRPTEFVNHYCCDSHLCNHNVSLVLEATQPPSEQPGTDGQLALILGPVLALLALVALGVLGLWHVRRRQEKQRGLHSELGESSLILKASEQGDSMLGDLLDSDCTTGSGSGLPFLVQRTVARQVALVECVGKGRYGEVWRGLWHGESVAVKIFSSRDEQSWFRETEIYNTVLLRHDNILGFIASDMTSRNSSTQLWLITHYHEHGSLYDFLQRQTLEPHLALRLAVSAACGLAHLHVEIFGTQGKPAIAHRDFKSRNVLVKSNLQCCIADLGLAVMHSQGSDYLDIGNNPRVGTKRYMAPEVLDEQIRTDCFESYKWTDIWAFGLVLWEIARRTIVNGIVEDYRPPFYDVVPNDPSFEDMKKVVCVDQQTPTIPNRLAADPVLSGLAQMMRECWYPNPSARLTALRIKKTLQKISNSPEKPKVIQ

[30] = target: T1, Muscarinic acetylcholine receptor M4 (Homo sapiens) (UniProt P08173); conditions: Compound concentration 10.0 uM
T1 sequence (whole entry): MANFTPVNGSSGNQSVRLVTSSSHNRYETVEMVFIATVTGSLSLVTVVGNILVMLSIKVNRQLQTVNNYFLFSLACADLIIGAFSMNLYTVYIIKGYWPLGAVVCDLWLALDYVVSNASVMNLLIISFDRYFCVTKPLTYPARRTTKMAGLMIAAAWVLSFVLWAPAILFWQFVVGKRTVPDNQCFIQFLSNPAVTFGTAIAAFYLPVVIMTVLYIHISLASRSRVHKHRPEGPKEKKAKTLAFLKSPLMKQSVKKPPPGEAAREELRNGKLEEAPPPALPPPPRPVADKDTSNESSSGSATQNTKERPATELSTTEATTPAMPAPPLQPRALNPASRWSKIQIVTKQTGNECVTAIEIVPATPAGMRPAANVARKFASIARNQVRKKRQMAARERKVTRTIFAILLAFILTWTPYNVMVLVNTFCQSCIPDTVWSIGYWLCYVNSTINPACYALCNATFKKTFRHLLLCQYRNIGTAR

[31] = target: Tyrosine-protein kinase Srms (Homo sapiens) (UniProt Q9H3Y6); conditions: Compound concentration 1000.0 nM
[32] = target: SRSF protein kinase 2 (Homo sapiens) (UniProt P78362); conditions: Compound concentration 1000.0 nM
[33] = target: Ribosomal protein S6 kinase alpha-3 (Homo sapiens) (UniProt P51812); conditions: Compound concentration 1000.0 nM
[34] = target: Atypical kinase COQ8A, mitochondrial (Homo sapiens) (UniProt Q8NI60); conditions: Compound concentration 1000.0 nM
[35] = target: 5-hydroxytryptamine receptor 6 (Homo sapiens) (UniProt P50406); conditions: Compound concentration 10.0 uM
[36] = target: Histamine H4 receptor (Homo sapiens) (UniProt Q9H3N8); conditions: Compound concentration 10.0 uM
[37] = target: Serine/threonine-protein kinase 35 (Homo sapiens) (UniProt Q8TDR2); conditions: Compound concentration 1000.0 nM
[38] = target: Mitogen-activated protein kinase kinase kinase kinase 2 (Homo sapiens) (UniProt Q12851); conditions: Compound concentration 1000.0 nM
[39] = target: Rho-associated protein kinase 1 (Homo sapiens) (UniProt Q13464); conditions: Compound concentration 1000.0 nM
Sequence of Rho-associated protein kinase 1 (Homo sapiens) (Q13464 2-1354 limits assumed): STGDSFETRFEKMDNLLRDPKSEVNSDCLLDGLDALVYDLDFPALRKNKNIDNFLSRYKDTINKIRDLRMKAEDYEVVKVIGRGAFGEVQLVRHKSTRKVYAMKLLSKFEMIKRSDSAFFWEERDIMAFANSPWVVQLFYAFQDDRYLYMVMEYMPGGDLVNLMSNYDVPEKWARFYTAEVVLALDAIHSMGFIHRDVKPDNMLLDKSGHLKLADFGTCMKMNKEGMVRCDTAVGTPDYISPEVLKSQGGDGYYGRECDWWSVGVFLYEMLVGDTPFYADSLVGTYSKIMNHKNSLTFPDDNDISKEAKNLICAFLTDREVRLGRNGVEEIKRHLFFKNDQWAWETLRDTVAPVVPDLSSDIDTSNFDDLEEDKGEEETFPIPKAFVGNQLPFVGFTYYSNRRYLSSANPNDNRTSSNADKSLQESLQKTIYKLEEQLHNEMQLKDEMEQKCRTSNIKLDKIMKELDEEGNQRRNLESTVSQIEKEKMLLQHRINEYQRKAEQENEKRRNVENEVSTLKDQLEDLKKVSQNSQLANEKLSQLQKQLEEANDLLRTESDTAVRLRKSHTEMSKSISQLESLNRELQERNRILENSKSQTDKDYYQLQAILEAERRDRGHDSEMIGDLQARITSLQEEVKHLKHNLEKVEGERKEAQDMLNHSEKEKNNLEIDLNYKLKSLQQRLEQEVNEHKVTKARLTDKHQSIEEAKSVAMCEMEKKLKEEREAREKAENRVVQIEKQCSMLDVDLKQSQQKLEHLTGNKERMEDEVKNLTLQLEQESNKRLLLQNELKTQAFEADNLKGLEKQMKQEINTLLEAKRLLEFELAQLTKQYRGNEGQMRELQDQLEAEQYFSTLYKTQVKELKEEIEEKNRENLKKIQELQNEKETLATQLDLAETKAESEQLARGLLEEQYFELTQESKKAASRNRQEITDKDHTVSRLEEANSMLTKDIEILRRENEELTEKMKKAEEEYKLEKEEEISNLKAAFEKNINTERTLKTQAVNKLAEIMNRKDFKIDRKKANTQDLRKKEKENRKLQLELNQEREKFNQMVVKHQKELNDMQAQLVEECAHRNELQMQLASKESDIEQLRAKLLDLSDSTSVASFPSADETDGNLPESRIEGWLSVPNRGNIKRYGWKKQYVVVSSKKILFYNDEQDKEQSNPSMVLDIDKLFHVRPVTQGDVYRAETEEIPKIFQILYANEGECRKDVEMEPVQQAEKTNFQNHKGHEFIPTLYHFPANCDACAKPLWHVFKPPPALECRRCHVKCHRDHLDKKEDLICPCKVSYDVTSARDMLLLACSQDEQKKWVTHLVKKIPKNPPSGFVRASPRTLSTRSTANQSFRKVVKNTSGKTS

Compound | residual activity [1] | residual activity [2] | residual activity [3] | residual activity [4] | residual activity [5] | residual activity [6] | residual activity [7] | residual activity [8] | residual activity [9] | residual activity [10] | residual activity [11] | residual activity [12] | residual activity [13] | residual activity [14] | residual activity [15] | residual activity [16] | residual activity [17] | inhibition [18] | residual activity [19] | residual activity [20] | further results
CCC(=N\O)/C(C)=C/c1ccc(F)c(C)c1 [A-226] | 100% | 75% | 100% | 100% | 100% | 100% | 100% | 46% | 98% | 100% | 94% | 100% | 94% | 100% | 71% | 92% | 100% | 11.8% | 50% | 100% | residual activity [21]: 99%; residual activity [22]: 97%; residual activity [23]: 93%; residual activity [24]: 73%; residual activity [25]: 100%; residual activity [26]: 91%; residual activity [27]: 46%; residual activity [28]: 100%; residual activity [29]: 98%; inhibition [30]: 15.4%; residual activity [31]: 100%; residual activity [32]: 97%; residual activity [33]: 100%; residual activity [34]: 91%; inhibition [35]: -3.93%; inhibition [36]: 10.8%; residual activity [37]: 100%; residual activity [38]: 100%; residual activity [39]: 100%
CCC(=N\O)/C(C)=C/c1ccc(F)cc1 [A-079] | 100% | 100% | 85% | 99% | 86% | 79% | 94% | 86% | 100% | 72% | 100% | 100% | 97% | 85% | 88% | 82% | 100% | 12.2% | 70% | 52% | residual activity [21]: 100%; residual activity [22]: 87%; residual activity [23]: 60%; residual activity [24]: 86%; residual activity [25]: 93%; residual activity [26]: 90%; residual activity [27]: 91%; residual activity [28]: 84%; residual activity [29]: 76%; inhibition [30]: 18.2%; residual activity [31]: 76%; residual activity [32]: 75%; residual activity [33]: 100%; residual activity [34]: 78%; inhibition [35]: 15.6%; inhibition [36]: 9.43%; residual activity [37]: 100%; residual activity [38]: 97%; residual activity [39]: 100%
